Measured values taken from PubChem BioAssay AID2060886 (Molecular Pharmacology Branch, DTP, NCI, 2025).
pIC50: −log10 of the molar value.

System: 653999-131-R-J2-PDC complex spheroids, growth inhibition
Assay: Anticancer human tumor 653999-131-R-J2-PDC patient-derived lung adenocarcinoma cell line growth inhibition [RAS]
Conditions: for pIC50: curve of first compound; for viability, T/C: stronger effect = lower value
Procedure, shortened: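 Tumour cells grown as complex spheroids with HUVEC endothelial cells and mesenchymal stem cells, treated with RAS pathway inhibitor combinations. Each agent spans half-log steps from near clinical Cmax, or 10 microM where Cmax is unknown.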

[1] = second compound 0.0316 µM, first compound 0.0316 µM
[2] = second compound 0.0316 µM, first compound 0.1 µM
[3] = second compound 0.0316 µM, first compound 0.316 µM
[4] = second compound 0.0316 µM, first compound 1 µM
[5] = second compound 0.0316 µM, first compound 3.16 µM
[6] = second compound 0.0316 µM, first compound 10 µM
[7] = second compound 0.1 µM, first compound 0.0316 µM
[8] = second compound 0.1 µM, first compound 0.1 µM
[9] = second compound 0.1 µM, first compound 0.316 µM
[10] = second compound 0.1 µM, first compound 1 µM
[11] = second compound 0.1 µM, first compound 3.16 µM
[12] = second compound 0.1 µM, first compound 10 µM
[13] = second compound 0.316 µM, first compound 0.0316 µM
[14] = second compound 0.316 µM, first compound 0.1 µM
[15] = second compound 0.316 µM, first compound 0.316 µM
[16] = second compound 0.316 µM, first compound 1 µM
[17] = second compound 0.316 µM, first compound 3.16 µM
[18] = second compound 0.316 µM, first compound 10 µM
[19] = second compound 1 µM, first compound 0.0316 µM
[20] = second compound 1 µM, first compound 0.1 µM
[21] = second compound 1 µM, first compound 0.316 µM
[22] = second compound 1 µM, first compound 1 µM
[23] = second compound 1 µM, first compound 3.16 µM
[24] = second compound 1 µM, first compound 10 µM
[25] = second compound 3.16 µM, first compound 0.0316 µM
[26] = second compound 3.16 µM, first compound 0.1 µM
[27] = second compound 3.16 µM, first compound 0.316 µM
[28] = second compound 3.16 µM, first compound 1 µM
[29] = second compound 3.16 µM, first compound 3.16 µM
[30] = second compound 3.16 µM, first compound 10 µM
[31] = second compound 10 µM, first compound 0.0316 µM
[32] = second compound 10 µM, first compound 0.1 µM
[33] = second compound 10 µM, first compound 0.316 µM
[34] = second compound 10 µM, first compound 1 µM
[35] = second compound 10 µM, first compound 3.16 µM
[36] = second compound 10 µM, first compound 10 µM
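Note: spheroids exposed to the agents for seven days before the readout.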

CC(=O)OC12COC1CC(O)C1(C)C(=O)C(O)C3=C(C)C(OC(=O)C(O)C(NC(=O)OC(C)(C)C)c4ccccc4)CC(O)(C(OC(=O)c4ccccc4)C21)C3(C)C (centres undefined) + C#Cc1c(F)ccc2cc(O)cc(-c3ncc4c(N5CC6CCC(C5)N6)nc(OCC56CCCN5CC(F)C6)nc4c3F)c12 was tested, and the pIC50 (second compound 0.0316 µM) was 7.50, the pIC50 (second compound 0.1 µM) was greater than 7.50 and the pIC50 (second compound 0.316 µM) was greater than 7.50. For the same molecule, the pIC50 (second compound 1 µM) was greater than 7.50, the pIC50 (second compound 3.16 µM) was greater than 7.50 and the pIC50 (second compound 10 µM) was greater than 7.50. It also gave a viability, T/C [1] of 51%, a viability, T/C [2] of 58% and a viability, T/C [3] of 47.7%. The viability, T/C [4] was 65.3%, the viability, T/C [5] was 71.5% and the viability, T/C [6] was 59.4%. For the same molecule, the viability, T/C [7] was 50%, the viability, T/C [8] was 47% and the viability, T/C [9] was 50.4%. It also gave a viability, T/C [10] of 55.7%, a viability, T/C [11] of 57% and a viability, T/C [12] of 55.5%. The viability, T/C [13] was 43.4%, the viability, T/C [14] was 41.3% and the viability, T/C [15] was 42.5%. The viability, T/C [16] was 50.1%, the viability, T/C [17] was 47.4% and the viability, T/C [18] was 42.6%. The viability, T/C [19] was 25.7%, the viability, T/C [20] was 31.1% and the viability, T/C [21] was 32.2%. The viability, T/C [22] was 31.9%, the viability, T/C [23] was 28.8% and the viability, T/C [24] was 31%. It also gave a viability, T/C [25] of 19.6%, a viability, T/C [26] of 19.2% and a viability, T/C [27] of 15.8%. For the same molecule, the viability, T/C [28] was 16.2%, the viability, T/C [29] was 24.1% and the viability, T/C [30] was 18.5%. For the same molecule, the viability, T/C [31] was 12.6%, the viability, T/C [32] was 11.7% and the viability, T/C [33] was 12.4%. The viability, T/C [34] was 13.5%, the viability, T/C [35] was 17.4% and the viability, T/C [36] was 13.3%.
In the case of CCC(CC)c1cc(NC2CCC(N)C2)n2nccc2n1 (centres undefined) + C#Cc1c(F)ccc2cc(O)cc(-c3ncc4c(N5CC6CCC(C5)N6)nc(OCC56CCCN5CC(F)C6)nc4c3F)c12, the pIC50 (second compound 0.0316 µM) was 5.68, the pIC50 (second compound 0.1 µM) was 5.74 and the pIC50 (second compound 0.316 µM) was 5.80. The pIC50 (second compound 1 µM) was 5.89, the pIC50 (second compound 3.16 µM) was 7.50 and the pIC50 (second compound 10 µM) was greater than 7.50. The viability, T/C [1] was 91.1%, the viability, T/C [2] was 110% and the viability, T/C [3] was 84.8%. It also gave a viability, T/C [4] of 105%, a viability, T/C [5] of 15.3% and a viability, T/C [6] of 28.7%. It also gave a viability, T/C [7] of 85.2%, a viability, T/C [8] of 101% and a viability, T/C [9] of 93.1%. It also gave a viability, T/C [10] of 80.6%, a viability, T/C [11] of 14.2% and a viability, T/C [12] of 28.3%. For the same molecule, the viability, T/C [13] was 71.7%, the viability, T/C [14] was 75.5% and the viability, T/C [15] was 75.4%. It also gave a viability, T/C [16] of 72.3%, a viability, T/C [17] of 14.8% and a viability, T/C [18] of 17.3%. For the same molecule, the viability, T/C [19] was 56.2%, the viability, T/C [20] was 57% and the viability, T/C [21] was 68.7%. The viability, T/C [22] was 59.2%, the viability, T/C [23] was 10.7% and the viability, T/C [24] was 25.3%. It also gave a viability, T/C [25] of 47.2%, a viability, T/C [26] of 45% and a viability, T/C [27] of 49.3%. It also gave a viability, T/C [28] of 39.4%, a viability, T/C [29] of 16% and a viability, T/C [30] of 27.7%. The viability, T/C [31] was 36.2%, the viability, T/C [32] was 33.5% and the viability, T/C [33] was 20.9%. The viability, T/C [34] was 31.6%, the viability, T/C [35] was 9.65% and the viability, T/C [36] was 13.1%.
